Source: the NIST ThermoML archive (doi:10.1021/je801006q)

Legend:
[1] = 101.33 kPa, Liquid
[2] = xn = mol fraction of the nth substance listed; details: 101 kPa, Liquid
[3] = excess molar enthalpy (molar enthalpy of mixing); xn = mol fraction of the nth substance listed; details: 298.15 K, 101 kPa, Liquid, Calvet calorimetry

CCCCO [butan-1-ol]
[1]
Details	mass density [kg/m3]	viscosity [mPa·s]
293.15 K	809.52	2.941
298.15 K	805.54	2.572
303.15 K	801.92	2.275

O=C1CCCN1 [2-pyrrolidinone] + CCCCO
[2]
Details	mass density, 293.15 K [kg/m3]	mass density, 298.15 K [kg/m3]	mass density, 303.15 K [kg/m3]	viscosity, 293.15 K [mPa·s]	viscosity, 298.15 K [mPa·s]	viscosity, 303.15 K [mPa·s]
x1 = 0.0956	834.48	830.55	826.97	3.3	2.884	2.456
x1 = 0.1784	856.72	852.86	849.3	3.346	3.05	2.431
x1 = 0.2445	874.89	871.15	867.57	3.373	3.071	2.433
x1 = 0.3055	892	888.27	884.73	3.548	3.028	2.504
x1 = 0.3874	915.45	911.87	908.31	3.595	3.119	2.638
x1 = 0.4434	931.79	928.29	924.72	3.893	3.426	2.899
x1 = 0.4996	948.45	945.03	941.5	4.198	3.74	3.211
x1 = 0.5944	977.19	973.95	970.39	5.167	4.682	3.921
x1 = 0.6573	996.67	993.5	990.11	6.087	5.497	4.578
x1 = 0.7236	1017.57	1014.53	1011.05	7.353	6.572	5.384
x1 = 0.7983	1041.7	1038.72	1035.32	9.017	8.117	6.428
x1 = 0.8554	1060.58	1057.59	1054.15	10.75	9.56	7.469
x1 = 0.9121	1079.61	1076.71	1073.26	12.57	11.01	8.726
x1 = 0.9778	1102.22	1099.35	1095.78	14.88	12.7	10.3

[3]
Details	excess molar enthalpy [kcal/mol]
x1 = 0.0564	0.0234
x1 = 0.1225	0.039
x1 = 0.1877	0.0496
x1 = 0.2452	0.0563
x1 = 0.3266	0.0598
x1 = 0.3884	0.0603
x1 = 0.4453	0.0581
x1 = 0.5022	0.0556
x1 = 0.5963	0.0493
x1 = 0.6844	0.0412
x1 = 0.7452	0.0346
x1 = 0.8553	0.0227
x1 = 0.9278	0.0126

CC(C)(C)O [2-methylpropan-2-ol]
[1]
Details	mass density [kg/m3]	viscosity [mPa·s]
293.15 K	795.68	5.486
298.15 K	780.65	4.436
303.15 K	775.76	3.378

O=C1CCCN1 [2-pyrrolidinone] + CC(C)(C)O
[2]
Details	mass density, 293.15 K [kg/m3]	mass density, 298.15 K [kg/m3]	mass density, 303.15 K [kg/m3]	viscosity, 293.15 K [mPa·s]	viscosity, 298.15 K [mPa·s]	viscosity, 303.15 K [mPa·s]
x1 = 0.0786	806.96	802	797.13	4.778	3.771	3.586
x1 = 0.1832	836.27	831.45	826.69	3.931	3.23	2.732
x1 = 0.2489	855.32	850.57	845.86	3.399	2.698	2.053
x1 = 0.3105	873.59	868.94	864.29	2.824	2.109	1.481
x1 = 0.3875	897.03	892.52	887.93	2.167	1.547	0.786
x1 = 0.4556	918.3	913.93	909.39	1.857	1.333	0.464
x1 = 0.5003	932.55	928.28	923.8	1.665	–	–
x1 = 0.5734	956.36	952.27	947.87	1.87	1.496	–
x1 = 0.6544	983.51	979.59	975.32	2.478	2.049	1.049
x1 = 0.7236	1007.36	1003.63	999.49	3.648	3.252	2.12
x1 = 0.7995	1034.28	1030.79	1026.74	5.671	5.011	3.681
x1 = 0.8672	1059.06	1055.73	1051.83	8.035	7.463	5.849
x1 = 0.9237	1080.26	1077.13	1073.37	10.94	9.609	8.042
x1 = 0.9823	1102.87	1099.95	1096.31	14.34	12.12	9.894

[3]
Details	excess molar enthalpy [kcal/mol]
x1 = 0.0498	0.0345
x1 = 0.1189	0.0582
x1 = 0.1932	0.077
x1 = 0.2551	0.0902
x1 = 0.3309	0.102
x1 = 0.3946	0.106
x1 = 0.4411	0.106
x1 = 0.4943	0.103
x1 = 0.5766	0.0947
x1 = 0.6806	0.081
x1 = 0.7422	0.0687
x1 = 0.8435	0.0413
x1 = 0.9312	0.0257

O=C1CCCN1 [2-pyrrolidinone] + CCC(C)O
[2]
Details	mass density, 293.15 K [kg/m3]	mass density, 298.15 K [kg/m3]	mass density, 303.15 K [kg/m3]	viscosity, 293.15 K [mPa·s]	viscosity, 298.15 K [mPa·s]	viscosity, 303.15 K [mPa·s]
x1 = 0.0995	831.58	828.13	824.55	3.409	2.829	2.3
x1 = 0.1675	849.93	846.53	842.94	3.108	2.409	1.896
x1 = 0.2444	871.14	867.8	864.23	3.034	2.443	1.707
x1 = 0.2996	886.73	883.42	879.83	2.84	2.461	1.724
x1 = 0.3945	914.18	910.92	907.3	2.982	2.561	1.834
x1 = 0.4531	931.54	928.3	924.68	3.084	2.698	2.068
x1 = 0.4967	944.64	941.43	937.81	3.237	2.856	2.348
x1 = 0.5546	962.32	959.15	955.53	3.668	3.241	2.702
x1 = 0.6402	989.06	985.96	982.36	4.673	4.125	3.405
x1 = 0.7126	1012.23	1009.19	1005.62	5.995	5.238	4.304
x1 = 0.7895	1037.38	1034.41	1030.84	7.928	6.821	5.519
x1 = 0.8438	1055.57	1052.66	1049.12	9.691	8.277	6.842
x1 = 0.9096	1078.09	1075.19	1071.64	11.74	10.1	8.162
x1 = 0.9767	1101.54	1098.73	1095.14	14.73	12.47	10.15

[3]
Details	excess molar enthalpy [kcal/mol]
x1 = 0.0555	0.0404
x1 = 0.1212	0.0663
x1 = 0.1842	0.0823
x1 = 0.2443	0.0929
x1 = 0.3301	0.0988
x1 = 0.3903	0.0996
x1 = 0.4444	0.0966
x1 = 0.4998	0.092
x1 = 0.5887	0.0806
x1 = 0.6799	0.0665
x1 = 0.7389	0.0565
x1 = 0.8478	0.037
x1 = 0.9309	0.0215

O=C1CCCN1 [2-pyrrolidinone]
[1]
Details	mass density [kg/m3]	viscosity [mPa·s]
293.15 K	1109.84	15.84
298.15 K	1106.98	13.07
303.15 K	1103.38	10.69

CC(C)CO [2-methyl-1-propanol]
[1]
Details	mass density [kg/m3]	viscosity [mPa·s]
293.15 K	801.28	3.943
298.15 K	797.74	3.332
303.15 K	794.32	2.884

O=C1CCCN1 [2-pyrrolidinone] + CC(C)CO
[2]
Details	mass density, 293.15 K [kg/m3]	mass density, 298.15 K [kg/m3]	mass density, 303.15 K [kg/m3]	viscosity, 293.15 K [mPa·s]	viscosity, 298.15 K [mPa·s]	viscosity, 303.15 K [mPa·s]
x1 = 0.0889	824.77	821.28	817.86	3.624	3.033	2.921
x1 = 0.1776	848.94	845.47	842.04	3.381	2.802	2.596
x1 = 0.2378	865.74	862.31	858.86	2.987	2.57	2.409
x1 = 0.3009	883.75	880.34	876.86	2.87	2.483	2.167
x1 = 0.3978	912.12	908.8	905.28	2.787	2.487	1.789
x1 = 0.4456	926.49	923.19	919.66	2.833	2.483	1.75
x1 = 0.5106	946.36	943.11	939.59	3.145	2.736	1.783
x1 = 0.5844	969.46	966.29	962.76	3.686	3.262	2.118
x1 = 0.6489	990.11	987	983.49	4.428	3.966	2.645
x1 = 0.7126	1010.87	1007.83	1004.4	5.569	4.938	3.369
x1 = 0.7943	1038.14	1035.18	1031.8	7.61	6.753	4.876
x1 = 0.8564	1059.36	1056.43	1053.04	9.46	8.552	6.388
x1 = 0.9126	1078.91	1075.98	1072.53	11.57	10.27	8.021
x1 = 0.9753	1100.98	1098.14	1094.58	14.55	12.91	10.15

[3]
Details	excess molar enthalpy [kcal/mol]
x1 = 0.0522	0.029
x1 = 0.1222	0.0512
x1 = 0.1812	0.065
x1 = 0.2451	0.0714
x1 = 0.3296	0.0748
x1 = 0.4043	0.074
x1 = 0.4535	0.0711
x1 = 0.5022	0.0663
x1 = 0.5912	0.0582
x1 = 0.6807	0.0489
x1 = 0.7402	0.043
x1 = 0.8466	0.0286
x1 = 0.9233	0.0171

CCC(C)O (stereo not given) [butan-2-ol]
[1]
Details	mass density [kg/m3]	viscosity [mPa·s]
293.15 K	805.54	3.625
298.15 K	802.06	2.998
303.15 K	798.45	2.489
